Reference: patent US20240245709A1, “[…] USE IN TREATMENT OF E[…] EPILEPTICUS” (MARINUS PHARMACEUTICALS, INC., priority 2021, published 2024)

Columns and labels:
[1] = Solubility of ganaxolone in solvents; type: physicochemical
Experimental: (§1) Ganaxolone is insoluble in water. […] 3.5 mg/mL, and 3.1 mg/mL, respectively. Ganaxolone has a relatively long half-life—approximately 20 hours in human plasma following oral administration (Nohria, V. and Giller, E., Neurotherapeutics, (2007) 4(1): 102-105). Furthermore, ganaxolone has a short Tmax, which means that therapeutic blood levels are reached quickly.
Ganaxolone formulations suitable for parenteral administration in the methods of the present invention may comprise physiologically acceptable sterile aqueous or non-aqueous solutions, dispersions, suspensions or emulsions, and sterile powders for reconstitution into sterile injectable solutions or dispersions. Examples of suitable aqueous and non-aqueous carriers, diluents, solvents, or vehicles including water, ethanol, polyols (propylene glycol, polyethylene-glycol, glycerol, cremophor and the like), suitable mixtures thereof, vegetable oils (such as olive oil) and injectable organic esters such as ethyl oleate. Additionally, ganaxolone can be dissolved at concentrations of >1 mg/ml using water soluble beta cyclodextrins (e.g. beta-sulfobutyl-cyclodextrin and 2-hydroxypropylbetacyclodextrin). A particularly suitable cyclodextrin is a substituted-β-cyclodextrin is Captisol®. […]

[2] = Human plasma pharmacokinetics following oral administration; type: in vivo
Experimental: as §1

[3] = Clinical safety in the ganaxolone development program (placebo-controlled Phase 1, 2 and 3 studies); type: in vivo, human
Source text: In the completed placebo-controlled Phase 1, 2, and 3 studies, 0.32% of subjects who received ganaxolone and 0.46% of subjects who received placebo developed elevated LFTs during the study (>3×ULN AST and/or ALT). A subject participating in the ganaxolone paediatric epilepsy study developed liver failure, which was not considered to be related to ganaxolone. The subject was diagnosed with short bowel syndrome, liver steatosis and IgG-cholangitis, which were considered to be the causal factors for the subject's liver failure. There have been no other cases of Hy's Law or liver failure in the ganaxolone development program. […] After cessation of the dosing, plasma ganaxolone levels are expected to drop rapidly, but it is possible that low sub-therapeutic levels persist for several days as ganaxolone is slowly released from tissues.
(§2) Ganaxolone has been administered to infants with severe forms of epilepsy as early as 4 months of age. In clinical trials involving administration of ganaxolone over several weeks, the study drug has been tapered off over a 1 to 2-week period.

[4] = biological target: T1, progesterone receptor (Homo sapiens, UniProt P06401); assay: Progesterone receptor activation; settings: directly or indirectly, via metabolic conversion
T1 sequence (P06401 1-933): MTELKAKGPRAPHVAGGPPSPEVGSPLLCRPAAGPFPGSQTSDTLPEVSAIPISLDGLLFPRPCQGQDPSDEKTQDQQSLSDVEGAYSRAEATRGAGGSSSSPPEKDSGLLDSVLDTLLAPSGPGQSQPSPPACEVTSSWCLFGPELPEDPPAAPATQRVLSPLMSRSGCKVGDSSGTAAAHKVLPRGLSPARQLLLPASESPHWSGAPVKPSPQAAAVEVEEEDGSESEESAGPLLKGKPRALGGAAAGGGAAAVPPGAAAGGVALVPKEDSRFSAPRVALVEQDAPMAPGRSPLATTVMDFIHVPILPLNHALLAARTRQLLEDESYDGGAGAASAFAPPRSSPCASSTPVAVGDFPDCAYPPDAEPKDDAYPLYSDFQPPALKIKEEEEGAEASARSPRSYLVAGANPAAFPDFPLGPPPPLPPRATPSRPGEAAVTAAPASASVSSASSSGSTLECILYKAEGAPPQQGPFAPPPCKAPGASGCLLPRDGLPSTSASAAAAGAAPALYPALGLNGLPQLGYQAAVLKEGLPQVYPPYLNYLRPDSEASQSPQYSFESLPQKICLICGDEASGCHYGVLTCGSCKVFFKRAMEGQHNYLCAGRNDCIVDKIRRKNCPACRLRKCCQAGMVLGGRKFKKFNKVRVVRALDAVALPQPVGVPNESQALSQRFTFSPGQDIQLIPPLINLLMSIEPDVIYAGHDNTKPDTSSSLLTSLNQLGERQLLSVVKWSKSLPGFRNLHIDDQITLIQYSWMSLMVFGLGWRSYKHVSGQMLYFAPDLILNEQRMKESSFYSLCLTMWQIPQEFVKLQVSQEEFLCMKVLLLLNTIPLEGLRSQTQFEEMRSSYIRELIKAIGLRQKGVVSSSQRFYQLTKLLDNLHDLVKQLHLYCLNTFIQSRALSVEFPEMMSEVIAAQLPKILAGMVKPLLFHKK
Source text: Ganaxolone (3α-hydroxy-3β-methyl-5α-pregnan-20-one) is a 3β-methylated synthetic analogue of the endogenous neurosteroid allopregnanolone with similar biological activity (Carter et al., (1997), The Journal of Pharmacology and Experimental Therapeutics, 280:1284-1295), but it is designed to not activate nuclear (classical) progesterone receptors.

[5] = Toxicology studies in animals focusing on prenatal and neonatal development; type: in vivo
Source text: as §2

[6] = human plasma, oral administration; cited from earlier work
[7] = system: CYP3A4/5; assay: Metabolism and effect of strong CYP inducers on ganaxolone clearance (in vitro data and human PK data)

## CC(=O)[C@H]1CC[C@H]2[C@@H]3CC[C@H]4C[C@](C)(O)CC[C@]4(C)[C@H]3CC[C@]12C [ganaxolone, 3α-hydroxy-3β-methyl-5α-pregnan-20-one]
[1]; aqueous with cosolvent or surfactant or cyclodextrin, beta-sulfobutyl-cyclodextrin and 2-hydroxypropylbetacyclodextrin, read-out: concentration dissolved using water soluble beta cyclodextrins
  solubility: > 1000 µg/mL
[1]; water
  solubility in water: insoluble
[2]; human, in vivo
  Tmax: short
[2]; in contrast to allopregnanolone
  oral bioavailability: orally bioavailable
[3]; clinical trials, several weeks of administration, tapered off over 1 to 2 weeks
  withdrawal symptoms after cessation: no reports of withdrawal symptoms
[3]; completed placebo-controlled Phase 1, 2 and 3 studies
  subjects who developed elevated LFTs (>3×ULN AST and/or ALT): 0.32%
[3]; development program overall
  trends in ECG intervals, vital signs, physical or neurological examinations: no clinically significant trends
[3]; ganaxolone and its metabolites
  excretion to breast milk: excreted to breast milk
[3]; subject, intravenous administration
  plasma concentration that can induce anesthesia: above 1000 ng/ml
[4]
  activation of the progesterone receptor: does not activate
[5]
  prenatal and neonatal developmental toxicity: have not demonstrated toxicities
[6]
  half-life: approximately 20 hours
[7]; human, in vivo
  metabolizing enzyme: metabolized by CYP3A4/5
[7]; subjects taking strong CYP inducers (carbamazepine and phenytoin)
  lowering in overall ganaxolone levels and exposure: ~45%
